Test results reported in ChEMBL document CHEMBL1133256, “6-Bicyclopiperazinyl-1-arylsulfonylindoles and 6-bicyclopiperidinyl-1-arylsulfonylindoles derivatives as novel, potent, and selective 5-HT6 receptor antagonists” (Bioorg Med Chem Lett, 2000).
One block for each compound: values may come before it.

Tests used:
[1] = molecular target: 5-hydroxytryptamine receptor 6 (Homo sapiens, UniProt P50406); assay: Displacement of [3H]LSD from human 5-hydroxytryptamine 6 receptor expressed in HEK 293 cells; type: cell-based, HEK293
Chain of 5-hydroxytryptamine receptor 6 (P50406 whole entry): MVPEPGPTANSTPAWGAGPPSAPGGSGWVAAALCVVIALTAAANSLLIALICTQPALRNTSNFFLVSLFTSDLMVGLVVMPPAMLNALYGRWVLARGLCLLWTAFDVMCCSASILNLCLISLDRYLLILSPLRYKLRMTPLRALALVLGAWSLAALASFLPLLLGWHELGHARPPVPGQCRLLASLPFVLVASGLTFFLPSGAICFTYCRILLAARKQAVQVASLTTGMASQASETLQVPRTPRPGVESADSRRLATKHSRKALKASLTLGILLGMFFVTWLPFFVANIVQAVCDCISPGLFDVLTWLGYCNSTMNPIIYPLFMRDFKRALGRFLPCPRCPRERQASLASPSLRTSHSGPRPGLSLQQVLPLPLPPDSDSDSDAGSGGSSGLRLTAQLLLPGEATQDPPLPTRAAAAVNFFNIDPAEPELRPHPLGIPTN

[2] = molecular target: D(1A) dopamine receptor (Homo sapiens) (UniProt P21728); assay: In vitro binding affinity against human Dopamine receptor D1 at a concentration of 100 (nM)
Chain of D(1A) dopamine receptor (Homo sapiens) (P21728 whole entry): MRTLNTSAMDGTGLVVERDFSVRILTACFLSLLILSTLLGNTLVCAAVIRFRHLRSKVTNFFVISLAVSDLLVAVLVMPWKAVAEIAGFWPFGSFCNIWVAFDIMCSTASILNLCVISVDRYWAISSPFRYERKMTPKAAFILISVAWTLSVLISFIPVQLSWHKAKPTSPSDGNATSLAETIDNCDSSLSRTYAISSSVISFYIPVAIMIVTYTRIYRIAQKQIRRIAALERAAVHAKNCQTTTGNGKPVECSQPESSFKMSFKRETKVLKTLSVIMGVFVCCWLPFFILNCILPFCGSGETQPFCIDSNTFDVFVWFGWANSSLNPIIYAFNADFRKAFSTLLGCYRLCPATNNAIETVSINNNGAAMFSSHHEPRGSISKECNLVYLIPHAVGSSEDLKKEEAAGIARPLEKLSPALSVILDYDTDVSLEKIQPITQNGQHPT

[3] = molecular target: T1, D(4) dopamine receptor (Homo sapiens) (UniProt P21917); assay: In vitro binding affinity against human Dopamine receptor D4 at a concentration of 100 (nM)
T1 sequence (whole entry): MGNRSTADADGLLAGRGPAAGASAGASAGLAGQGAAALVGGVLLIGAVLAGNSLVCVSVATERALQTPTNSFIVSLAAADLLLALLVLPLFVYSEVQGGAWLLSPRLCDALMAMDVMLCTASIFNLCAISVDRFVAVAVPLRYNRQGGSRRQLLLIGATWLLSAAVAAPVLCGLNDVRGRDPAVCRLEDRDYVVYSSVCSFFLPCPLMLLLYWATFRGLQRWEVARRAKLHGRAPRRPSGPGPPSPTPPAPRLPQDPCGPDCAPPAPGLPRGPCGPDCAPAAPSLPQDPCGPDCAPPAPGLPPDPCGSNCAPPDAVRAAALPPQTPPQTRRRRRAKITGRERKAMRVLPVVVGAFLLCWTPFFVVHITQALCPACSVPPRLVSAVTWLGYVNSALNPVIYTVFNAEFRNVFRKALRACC

[4] = molecular target: Adrenergic receptor alpha-1 (Homo sapiens) (UniProt P35348+P25100+P35368); assay: In vitro binding affinity against human Alpha-1 adrenergic receptor at a concentration of 100 (nM); type: protein assay
[5] = molecular target: T2, 5-hydroxytryptamine receptor 1F (Homo sapiens) (UniProt P30939); assay: In vitro binding affinity against human 5-hydroxytryptamine 1F receptor at a concentration of 100 (nM)
T2 sequence (whole entry): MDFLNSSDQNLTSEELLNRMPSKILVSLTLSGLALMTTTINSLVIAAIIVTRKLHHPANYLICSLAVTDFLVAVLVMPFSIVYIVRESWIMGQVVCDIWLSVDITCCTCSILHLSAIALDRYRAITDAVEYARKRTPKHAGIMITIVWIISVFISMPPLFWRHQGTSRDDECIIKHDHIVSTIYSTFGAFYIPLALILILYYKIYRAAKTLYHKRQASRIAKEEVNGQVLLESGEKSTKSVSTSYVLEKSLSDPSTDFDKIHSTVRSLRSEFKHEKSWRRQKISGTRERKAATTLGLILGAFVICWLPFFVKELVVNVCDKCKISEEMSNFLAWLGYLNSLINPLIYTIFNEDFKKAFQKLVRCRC

[6] = molecular target: T3, 5-hydroxytryptamine receptor 1A (Homo sapiens) (UniProt P08908); assay: In vitro binding affinity against human 5-hydroxytryptamine 1A receptor at a concentration of 100 (nM)
T3 sequence (whole entry): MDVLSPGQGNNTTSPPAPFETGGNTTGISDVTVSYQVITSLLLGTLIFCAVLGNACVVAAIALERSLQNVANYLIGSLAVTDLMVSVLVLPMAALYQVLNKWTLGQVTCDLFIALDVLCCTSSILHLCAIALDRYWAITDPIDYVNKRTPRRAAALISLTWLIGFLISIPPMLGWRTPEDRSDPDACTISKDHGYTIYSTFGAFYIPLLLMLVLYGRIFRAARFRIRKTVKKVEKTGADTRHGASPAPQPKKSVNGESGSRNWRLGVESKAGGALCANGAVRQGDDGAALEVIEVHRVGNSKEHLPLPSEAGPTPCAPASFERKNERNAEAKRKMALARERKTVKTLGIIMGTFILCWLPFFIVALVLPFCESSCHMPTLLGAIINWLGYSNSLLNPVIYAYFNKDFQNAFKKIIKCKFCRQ

[7] = molecular target: T4, 5-hydroxytryptamine receptor 2C (Homo sapiens) (UniProt P28335); assay: In vitro binding affinity against human 5-hydroxytryptamine 2C receptor at a concentration of 100 (nM)
T4 sequence (whole entry): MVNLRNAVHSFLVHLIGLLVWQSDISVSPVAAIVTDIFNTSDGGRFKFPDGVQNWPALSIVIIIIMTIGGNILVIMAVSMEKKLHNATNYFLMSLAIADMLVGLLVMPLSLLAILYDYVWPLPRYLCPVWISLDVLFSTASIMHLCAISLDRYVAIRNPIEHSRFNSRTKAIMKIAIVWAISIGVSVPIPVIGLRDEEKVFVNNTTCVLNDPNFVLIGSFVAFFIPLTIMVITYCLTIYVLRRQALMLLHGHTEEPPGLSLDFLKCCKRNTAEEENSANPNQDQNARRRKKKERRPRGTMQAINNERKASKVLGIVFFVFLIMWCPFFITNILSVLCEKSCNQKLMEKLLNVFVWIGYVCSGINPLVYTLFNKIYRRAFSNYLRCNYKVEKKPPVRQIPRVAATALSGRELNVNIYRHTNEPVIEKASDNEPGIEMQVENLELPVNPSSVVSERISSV

[8] = molecular target: Muscarinic acetylcholine receptors; M1 & M2 (Homo sapiens) (UniProt P11229+P08172); assay: In vitro binding affinity against human Muscarinic acetylcholine receptor M1- Muscarinic acetylcholine receptor M2 at a concentration of 100 (nM); type: protein assay
[9] = molecular target: 5-hydroxytryptamine receptor 7 (Homo sapiens) (UniProt P34969); assay: In vitro binding affinity against human 5-hydroxytryptamine 7 receptor at a concentration of 100 (nM)
Chain of 5-hydroxytryptamine receptor 7 (Homo sapiens) (P34969 whole entry): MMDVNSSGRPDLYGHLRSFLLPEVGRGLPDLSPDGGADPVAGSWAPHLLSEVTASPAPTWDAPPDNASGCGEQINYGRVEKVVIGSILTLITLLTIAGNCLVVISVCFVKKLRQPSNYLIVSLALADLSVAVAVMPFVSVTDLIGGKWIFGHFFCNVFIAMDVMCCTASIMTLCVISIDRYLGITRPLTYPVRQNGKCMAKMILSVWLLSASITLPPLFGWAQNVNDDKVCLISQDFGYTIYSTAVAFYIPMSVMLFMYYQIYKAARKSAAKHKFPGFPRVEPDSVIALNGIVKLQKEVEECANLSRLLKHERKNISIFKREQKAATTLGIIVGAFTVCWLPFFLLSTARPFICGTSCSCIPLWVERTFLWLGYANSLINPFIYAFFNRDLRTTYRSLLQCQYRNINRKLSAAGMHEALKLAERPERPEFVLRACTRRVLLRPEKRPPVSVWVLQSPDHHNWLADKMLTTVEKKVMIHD

[10] = molecular target: 5-hydroxytryptamine receptor 1D (Homo sapiens) (UniProt P28221); assay: In vitro binding affinity against human 5-hydroxytryptamine 1D receptor at a concentration of 100 (nM)
Chain of 5-hydroxytryptamine receptor 1D (Homo sapiens) (P28221 whole entry): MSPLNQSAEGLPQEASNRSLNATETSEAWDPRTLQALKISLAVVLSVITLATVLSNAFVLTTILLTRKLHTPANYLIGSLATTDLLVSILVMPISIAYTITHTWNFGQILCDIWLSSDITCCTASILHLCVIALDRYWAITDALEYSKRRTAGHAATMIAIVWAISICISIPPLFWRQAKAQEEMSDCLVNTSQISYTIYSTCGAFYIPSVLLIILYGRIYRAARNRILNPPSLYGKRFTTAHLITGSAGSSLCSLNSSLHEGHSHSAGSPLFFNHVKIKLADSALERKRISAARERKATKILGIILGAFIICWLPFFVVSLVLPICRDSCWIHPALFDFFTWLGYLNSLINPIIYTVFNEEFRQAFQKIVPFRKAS

[11] = molecular target: D(3) dopamine receptor (Homo sapiens) (UniProt P35462); assay: In vitro binding affinity against human Dopamine receptor D3 at a concentration of 100 (nM)
Chain of D(3) dopamine receptor (Homo sapiens) (P35462 whole entry): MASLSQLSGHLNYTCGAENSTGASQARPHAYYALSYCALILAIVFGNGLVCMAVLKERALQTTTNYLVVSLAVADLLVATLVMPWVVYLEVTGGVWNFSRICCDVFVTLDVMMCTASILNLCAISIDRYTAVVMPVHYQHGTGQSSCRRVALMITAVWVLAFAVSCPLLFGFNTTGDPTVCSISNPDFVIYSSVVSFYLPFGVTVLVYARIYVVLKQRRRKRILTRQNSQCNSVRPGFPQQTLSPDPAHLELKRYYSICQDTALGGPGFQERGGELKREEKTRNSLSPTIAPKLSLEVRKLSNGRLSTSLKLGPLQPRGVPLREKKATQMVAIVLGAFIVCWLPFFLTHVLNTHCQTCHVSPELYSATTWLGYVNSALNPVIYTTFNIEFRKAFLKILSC

[12] = molecular target: 5-hydroxytryptamine receptor 2A (Homo sapiens) (UniProt P28223); assay: In vitro binding affinity against human 5-hydroxytryptamine 2A receptor at a concentration of 100 (nM)
Chain of 5-hydroxytryptamine receptor 2A (Homo sapiens) (P28223 whole entry): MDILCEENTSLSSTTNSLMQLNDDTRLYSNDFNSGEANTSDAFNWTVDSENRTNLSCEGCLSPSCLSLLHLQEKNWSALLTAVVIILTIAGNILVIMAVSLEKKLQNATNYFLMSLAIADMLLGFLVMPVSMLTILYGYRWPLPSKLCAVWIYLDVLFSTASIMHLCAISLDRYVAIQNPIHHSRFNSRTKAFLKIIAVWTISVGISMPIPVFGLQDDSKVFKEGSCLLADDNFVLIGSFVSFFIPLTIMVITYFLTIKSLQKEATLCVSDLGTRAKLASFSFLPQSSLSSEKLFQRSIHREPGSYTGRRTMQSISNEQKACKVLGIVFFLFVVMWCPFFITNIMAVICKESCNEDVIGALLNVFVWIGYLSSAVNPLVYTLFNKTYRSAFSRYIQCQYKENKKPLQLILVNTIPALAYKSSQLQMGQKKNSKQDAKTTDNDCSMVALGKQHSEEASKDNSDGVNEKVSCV

[13] = molecular target: D(2) dopamine receptor (Homo sapiens) (UniProt P14416); assay: In vitro binding affinity against human Dopamine receptor D2 at a concentration of 100 (nM)
Chain of D(2) dopamine receptor (Homo sapiens) (P14416 whole entry): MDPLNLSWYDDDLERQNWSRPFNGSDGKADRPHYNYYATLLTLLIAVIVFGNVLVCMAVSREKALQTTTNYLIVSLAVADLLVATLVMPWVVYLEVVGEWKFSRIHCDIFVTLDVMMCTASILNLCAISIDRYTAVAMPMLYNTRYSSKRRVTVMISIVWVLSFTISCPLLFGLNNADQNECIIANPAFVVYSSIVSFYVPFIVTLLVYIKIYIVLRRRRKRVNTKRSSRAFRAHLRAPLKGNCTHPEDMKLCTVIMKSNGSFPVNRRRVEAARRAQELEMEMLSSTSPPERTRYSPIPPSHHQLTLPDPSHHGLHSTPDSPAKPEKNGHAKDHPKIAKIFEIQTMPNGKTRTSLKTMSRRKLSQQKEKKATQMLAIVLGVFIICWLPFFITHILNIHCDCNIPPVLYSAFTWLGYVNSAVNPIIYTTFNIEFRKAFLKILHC

[14] = molecular target: D(1B) dopamine receptor (Homo sapiens) (UniProt P21918); assay: In vitro binding affinity against human D5 receptor at a concentration of 100 (nM)
Chain of D(1B) dopamine receptor (Homo sapiens) (P21918 whole entry): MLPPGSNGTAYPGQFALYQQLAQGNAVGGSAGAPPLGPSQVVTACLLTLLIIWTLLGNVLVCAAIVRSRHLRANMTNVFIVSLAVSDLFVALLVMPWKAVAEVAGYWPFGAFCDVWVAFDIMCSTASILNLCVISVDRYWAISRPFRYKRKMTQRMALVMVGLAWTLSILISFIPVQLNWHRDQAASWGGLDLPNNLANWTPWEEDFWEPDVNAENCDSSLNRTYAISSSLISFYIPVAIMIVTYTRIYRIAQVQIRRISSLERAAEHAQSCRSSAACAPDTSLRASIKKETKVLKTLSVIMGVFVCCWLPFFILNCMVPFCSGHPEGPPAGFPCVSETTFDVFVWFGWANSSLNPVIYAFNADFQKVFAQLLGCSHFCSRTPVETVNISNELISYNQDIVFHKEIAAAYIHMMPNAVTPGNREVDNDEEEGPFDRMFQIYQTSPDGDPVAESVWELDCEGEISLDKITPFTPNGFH

[15] = molecular target: 5-hydroxytryptamine receptor 2B (Homo sapiens) (UniProt P41595); assay: In vitro binding affinity against human 5-HT2B receptor at a concentration of 100 (nM)
Chain of 5-hydroxytryptamine receptor 2B (Homo sapiens) (P41595 whole entry): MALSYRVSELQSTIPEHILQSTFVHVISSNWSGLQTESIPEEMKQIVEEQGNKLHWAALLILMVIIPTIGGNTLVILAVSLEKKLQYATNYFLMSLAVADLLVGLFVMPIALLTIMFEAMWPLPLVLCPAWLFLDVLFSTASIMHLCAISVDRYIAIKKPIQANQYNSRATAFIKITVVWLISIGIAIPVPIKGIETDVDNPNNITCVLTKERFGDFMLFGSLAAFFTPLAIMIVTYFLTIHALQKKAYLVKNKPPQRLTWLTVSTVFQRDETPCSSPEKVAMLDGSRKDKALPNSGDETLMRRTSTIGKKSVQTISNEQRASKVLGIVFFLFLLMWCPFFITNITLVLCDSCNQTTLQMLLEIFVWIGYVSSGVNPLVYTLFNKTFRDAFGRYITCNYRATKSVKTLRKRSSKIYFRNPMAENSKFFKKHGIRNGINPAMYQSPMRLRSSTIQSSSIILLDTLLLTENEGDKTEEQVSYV

[16] = molecular target: 5-hydroxytryptamine receptor 1B (Homo sapiens) (UniProt P28222); assay: In vitro binding affinity against human 5-hydroxytryptamine 1B receptor at a concentration of 100 (nM)
Chain of 5-hydroxytryptamine receptor 1B (Homo sapiens) (P28222 whole entry): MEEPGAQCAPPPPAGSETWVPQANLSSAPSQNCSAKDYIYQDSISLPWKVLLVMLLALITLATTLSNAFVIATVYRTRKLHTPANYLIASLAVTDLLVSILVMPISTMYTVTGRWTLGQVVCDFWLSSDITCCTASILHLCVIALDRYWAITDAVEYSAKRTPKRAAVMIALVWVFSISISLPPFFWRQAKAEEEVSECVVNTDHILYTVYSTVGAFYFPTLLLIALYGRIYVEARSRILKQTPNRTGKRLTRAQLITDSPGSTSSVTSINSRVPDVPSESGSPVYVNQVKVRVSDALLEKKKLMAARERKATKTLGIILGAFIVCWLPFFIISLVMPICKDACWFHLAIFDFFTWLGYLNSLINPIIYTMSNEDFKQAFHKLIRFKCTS

Ki [1]: 0.6 nM
Structure (SMILES): O=S(=O)(c1cccc2ccccc12)n1ccc2ccc(C3CCN4CCCC4C3)cc21 (single isomer, unassigned; less polar)

Ki [1]: 3.6 nM
Structure (SMILES): O=S(=O)(c1ccc(F)cc1F)n1ccc2ccc(N3CCN4CCCCC4C3)cc21 (centres undefined)

Ki [1]: 3 nM
Structure (SMILES): O=S(=O)(c1ccc2ccccc2c1)n1ccc2ccc(N3CCN4CCCCC4C3)cc21 (centres undefined)

Ki [1]: 1.7 nM
Structure (SMILES): O=S(=O)(c1cccc2ccccc12)n1ccc2ccc(N3CCN4CCCCC4C3)cc21 (centres undefined)

Ki [1]: 1.3 nM
Structure (SMILES): O=S(=O)(c1cccc2ccccc12)n1ccc2ccc(C3=CCN4CCCC4C3)cc21 (centres undefined)

Ki [1]: 3.3 nM
Structure (SMILES): Cc1ccc(S(=O)(=O)n2ccc3ccc(N4CCN5CCCC5C4)cc32)cc1 (centres undefined)

Ki [1]: 5.7 nM
Structure (SMILES): O=S(=O)(c1ccccc1)n1ccc2ccc(N3CCN4CCCCC4C3)cc21 (centres undefined)

Ki [1]: 4.9 nM
Structure (SMILES): Cc1ccc(S(=O)(=O)n2ccc3ccc(N4CCN5CCCCC5C4)cc32)cc1 (centres undefined)

inhibition [2]: 1%
inhibition [3]: 0%
inhibition [4]: 0%
inhibition [5]: 9%
inhibition [6]: 79%
inhibition [7]: 17%
inhibition [8]: 0%
inhibition [9]: 8%
inhibition [10]: 5%
inhibition [11]: 22%
inhibition [12]: 32%
inhibition [13]: 7%
inhibition [14]: 0%
inhibition [15]: 36%
inhibition [16]: 2%
Structure (SMILES): O=S(=O)(c1cccc2ccccc12)n1ccc2ccc(N3CCN4CCCC4C3)cc21 (centres undefined)

Ki [1]: 4.7 nM
Structure (SMILES): O=S(=O)(c1cccc2ccccc12)n1ccc2ccc(C3(O)CCN4CCCC4C3)cc21 (centres undefined)
